Measured values: patent US5430042A, “Dialkoxy-pyridinyl-benzimidazole derivatives, process for their preparation and their pharmaceutical use” (priority 1990, dated 1995)

Experiments:
gastric acid secretion [1] = assay: Inhibition of Gastric Acid Secretion in the Conscious Dog, iv; type: in vivo, dog (Harrier); details: Canis lupus familiaris, histamine-stimulated, acid output 2 h after dosing, read-out: Inhibition of acid secretion iv administration ED50, Dog
Method: (§1) The potency for inhibition of acid secretion is measured in the dog, intravenously (iv) and in the female rat, intravenously (iv).
Harrier dogs of either sex were used. They were equipped with a duodenal fistula for the administration of test compounds or vehicle and a Heidenhain-pouch for the collection of gastric secretions.
Before secretory tests the animals were fasted for about 18 h but water was freely allowed. Gastric acid secretion was stimulated by a 4 h infusion of histamine dihydrochloride (12 ml/h) at a dose producing about 80% of the individual maximal secretory response, and gastric juice collected in consecutive 30-min fractions. Test substance or vehicle was given iv 1 h after starting the histamine infusion, in a volume of 0.5 ml/kg body weight. The acidity of the gastric juice samples were determined by titration to pH 7.0, and the acid output calculated. The acid output in the collection periods after administration of test substance or vehicle were expressed as fractional responses, setting the acid output in the fraction preceding administration to 1.0. Percentage inhibition was calculated from fractional responses elicited by test compound and vehicle. ED50 -values were obtained by graphical interpolation on log dose--response curves, or estimated from single-dose experiments under the assumption of the same slope of the dose-response curve for all test compounds. […]

gastric acid secretion [2] = assay: Inhibition of Gastric Acid Secretion in the Conscious Female Rat, iv; type: in vivo, rat (Sprague-Dawley)
Method: as §1
Female rats of the Sprague-Dawley strain are used. They are equipped with cannulated fistulae in the stomach (lumen) for collection of gastric secretions. A fourteen days recovery period after surgery is allowed before testing is commenced.
Before secretory tests, the animals are deprived of food but not water for 20 h. The stomach is repeatedly washed through the gastric cannula, and 6 ml of Ringer-Glucose given s.c. Acid secretion is stimulated with infusion during 3.5 h (1.2 ml/h, s.c.) of pentagastrin and carbachol (20 and 110 nmol/kg h, respectively), during which time gastric secretions are collected in 30-min fractions. Test substances or vehicle are given iv at 90 min after starting the stimulation, in a volume of 1 ml/kg. Gastric juice samples are titrated to pH 7.0 with NaOH, 0.1 mol/L, and acid output is calculated as the product of titrant volume and concentration. Further calculations are based on group mean responses from 4-7 rats. The acid output during the periods after administration of test substances or vehicle are expressed as fractional responses, setting the acid output in the 30-min period preceding administration to 1.0. Percentage inhibition is calculated from the fractional responses elicited by test compound and vehicle. […]

[3] = Bioavailability in the Male Rat (id vs iv AUC); type: in vivo, rat (Sprague-Dawley); details: blood, 4 umol/kg, intraduodenal vs iv, 4 μmol/kg, read-out: Bioavailability F %, Rat
Method: Biovailability is assessed by calculating the quotient between the area under plasma concentration (AUC) curve following intreduodenal (id) administration and intravenous (iv) administration from the rat.
Male adult rats of the Sprague-Dawley strain were used. One day, prior to the experiments, all rats were prepared by cannulation of the left carotid artery under anaesthesia. The rats used for the intravenous experiments, were also cannulated in the jugular vein. (Ref. V. Popovic and P. Popovic, J Appl Physiol 1960;15,727-728). The rats used for the intraduodenal experiments, were also cannulated in the upper part of the duodenum. The cannulas were exteriorized at the nape of the neck. The rats were housed individually after surgery and were deprived of food, but not water, before administration of the test substances. The same dose (4 μmol/kg) were given iv and id as a bolus for about one minute (2 ml/kg).
Blood samples (0.1-0.4 g) were drawn repeatedly from the carotid artery at intervals up to 4 hours after given dose. […]
The area under the blood concentration vs time curve, AUC, was determined by the linear trapezoidal rule and extrapolated to infinity by dividing the last determined blood concentration by the elimination rate constant in the terminal phase.
The systemic bioavailability (F %) following intraduodenal administration was calculated as [formula]

[4] = tested on: uptake of ^125 I in the thyroid gland; assay: Effect on the Accumulation of ^125 I in the Thyroid Gland; type: in vivo, rat (Sprague-Dawley); details: oral gavage, male rat, 4 h after ^125 I
Method: The effect of a compound within the invention of the formula I on the uptake of iodine into the thyroid gland is measured as an effect on the accumulation of ^125 I in the thyroid gland.
The accumulation of ^125 I in the thyroid gland was studied in male, Sprague-Dawley rats which were deprived of food for 24 hours before the test. The experimental protocol of Searle, C. E. et al. (Biochem J 1950, 47:77-81) was followed.
Test substances suspended in 0.5% buffered (pH 9) methocel, were administered by oral gavage in a volume of 5 ml/kg body weight. After 1 hour, ^125 I (300 kBqkg, 3 ml/kg) was administered by intraperitoneal injection. Four hours after ^125 I-administration, the animals were killed by CO2 -asphyxiation and bled. The thyroid gland together with a piece of the trachea was dissected out and placed in a small test tube for the assay of radioactivity in a gamma counter (LKB-Wallac model 1282 Compugamma). Percentage inhibition was calculated according to the formula 100 (1-T/P), where T and P is the mean radioactivety of thyroid glands from animals treated with test agent and placebo (buffered methocel), respectively. The statistical significane for a difference between test agent- and placebo-treated animals was assessed with the Mann-Whitney U-test (two-tailed). P<0.05 was accepted as significant.

[5] = Chemical Stability at pH 7 in aqueous buffer; type: physicochemical; details: pH 7, 37° C., low concentration, read-out: Chemical stability at pH 7 half-life (t 1/2)
Method: The chemical stability of a compound of the invention is followed kinetically at low cencentration at 37° C. in aqueous buffer solution at different pH values. The results in Table 4 show the half life (t 1/2) at pH 7, that is the time period after which half the amount of the original compound remains unchanged.

Row | bioavailability [3] | Percent inhibition of 400 μmol/kg on the uptake of ^125 I in the thyroid gland [4] | half-life [5] | SMILES | ED50 (gastric acid secretion [1]) | ED50 (gastric acid secretion [2]; 2 h, iv, pentagastrin and carbachol stimulated, second hour after drug, read-out: Inhibition of acid secretion iv administration ED50, Rat) | inhibition of acid secretion, Rat (gastric acid secretion [2]; 1 μmol/kg iv)
1 | > 100% | -7% | 470 min | COc1ccnc(C[S+]([O-])c2nc3cc(C(C)=O)c(C)cc3[nH]2)c1OC (centres unmarked) [Example 4, 5-Acetyl-6-methyl-2-[[(3,4-dimethoxy-2-pyridinyl)methyl]sulfinyl]-1H-benzimidazole] | 0.74 µmol/kg | 0.9 µmol/kg | –
2 | – | -6% | 270 min | CCOC(=O)c1ccc2[nH]c([S+]([O-])Cc3nccc(OC)c3OC)nc2c1 (centres unmarked) [Example 5, 5-Carbethoxy-2-[[(3,4-dimethoxy-2pyridinyl)methyl]sulfinyl]-1H-benzimidazole] | – | – | –
3 | – | 0% | 480 min | COC(=O)c1cc2nc([S+]([O-])Cc3nccc(OC)c3OC)[nH]c2cc1C (centres unmarked) [Example 3, 5-Carbomethoxy-6-methyl-2-[[(3,4-dimethoxy-2-pyridinyl)methyl]sulfinyl]-1H-benzimidazole] | 0.5 µmol/kg | – | –
4 | – | – | – | CC(=O)c1cc2nc([S+]([O-])Cc3nccc4c3OCCO4)[nH]c2cc1C (centres unmarked) [Example 2, 5-Acetyl-6-methyl-2-[[(3,4-ethylendioxy-2-pyridinyl)methyl]sulfinyl]-1H-benzimidazole] | – | – | 14%
